Results on 3 compounds are retold here after patent publication US8481503B2, “Combination cancer therapy with an AKT inhibitor and other anticancer agents” (Merck Sharp & Dohme Corp., priority 2009, dated 2013).

Common to all, as to assay type: cell-based, Human
Series [1] deals with Caspase-3/7. Description: Caspase-3/7 assay (Caspase-Glo 3/7) in A2780 cells, Compound A plus cytotoxic agents. The procedure:
A2780 ovarian cancer cell line was cultured at 37° C. in complete medium (RPMI-1640 supplemented with 10% heat-inactivated FBS) and plated at 2,000 cells/well in 96 well assay plates (CORNING #3340). […] Then, Compound A and cytotoxic agents were added to each well and incubated at 37° C. in 5% CO2 for 24 hours. […] Medium was removed and 50 ul of Caspase-Glo reagents were added to wells. […] Relative Caspase-3/7 induction level was then calculated as the fold increase compared with the level of caspase-3/7 induction in the non-treatment group.

In series [2] the test system is Caspase-3/7. Nature of the series: Caspase-3/7 assay (Caspase-Glo 3/7) in NCI-H460 cells, Compound A plus cytotoxic agents.
The subject of another series is NCI-H460 NSCLC cell line. Nature of the series: in vitro proliferation/viability, combination Compound A and standard of care agents (CellTiter-Glo, CalcuSyn CI). Conditions: combination partner SOC with Compound A, simultaneous 72 h. The procedure: (§1) A 2- or 3-fold serial dilution series of concentrated Compound A/carboplatin combinations was prepared, in which the concentration ratio of the two drugs was fixed and equal to […] ratio of Compound A and carboplatin determined in single agent titrations described above. Corresponding single agent dilution series of concentrated Compound A and carboplatin were also prepared. The three dilution series were then tested in the proliferation/viability assay as described above. The data were analyzed using CalcuSyn software (BIOSOFT) that calculates combination index (CI) for each combination of Compound A/carboplatin as described below. Combination index values were generated by inserting the interpolated values into the mutually exclusive equation derived by Chou and Talalay.
(§2) Synergistic interaction between compounds was analyzed by the median effect method described by Chou and Talalay (Adv. Enzyme Regul. 22: 27-55, 1984). Studies were first conducted to determine the potency of Compound A or combination partner (Drug-A) as single agent in inhibiting proliferation/viability of tumor cells. The IC50 values of each single agent were determined by fitting data to four parameter dose-response equation. Percent inhibition of cell growth was calculated relative to vehicle treated control wells. […] Y starts at Bottom and goes to Top with a sigmoid shape.
(§3) The fixed ratio experimental design was then used to compare of various Compound A/Drug-A combinations and corresponding single agent treatments.
(§4) D1 and D2 are known from the composition of the combination and D1c and D2c can be calculated from the equation; Dc=Dm*[fa/(1−fa)]^1/m where Dm is the concentration of drugs giving 50% effect, fa is the fraction affected, and m is the slope from the median effect plot of log (fa/fu) where fu is the fraction unaffected versus log (D). A CI equal to 1 signifies an additive effect, less than 1 a synergistic effect, and greater than 1 an antagonistic effect.
Human non-small cell lung cancer cell (NCI-H460) was obtained from the American Type Culture Collection (ATCC). NCI-H460 cells were cultured in RPMI-1640 containing heat-inactivated 10% fetal bovine serum (FBS) in a humidified incubator at 37° C. in 5% CO2.
(§5) NCI-H460 NSCLC cell line was seeded at 2,000 cells/well in RPMI 1640 supplemented with 10% heat-inactivated FBS in 96 well tissue culture plates (CORNING #3340) and incubated at 37° C. in 5% CO2 overnight. On the next day Compound A, doxorubicin or the combination of the two agents was added as a 2-fold dilution series in RPMI containing 1% DMSO. The final DMSO concentration in each assay was 0.1%. The plates were then incubated at 37° C. in 5% CO2 for 72 hours. The number of viable cells was measured using CellTiter-Glo cell viability assay (Promega #G7571). The luminiscence signal was read using a ARVO-SX multimode plate reader (Perkin-Elmer). Combination index was determined by the same method as described in section T1.3.
as §5, with “camptothecin” for “doxorubicin”
NCI-H460 NSCLC cell line was seeded at 2,000 cells/well in RPMI 1640 supplemented with 10% heat-inactivated FBS in 96 well tissue culture plates (CORNING #3340) and incubated at 37° C. in 5% CO2 overnight.

Series [3] has as its system A2780 ovarian cancer cell line. The series is described as above. Conditions: combination partner SOC with Compound A, simultaneous 72 h. The protocol:
as §1, §2, §3, §4
Human ovarian cancer cell (A2780) was obtained from the European Collection of Cell Culture (ECACC). A2780 cells were cultured in RPMI-1640 containing heat-inactivated 10% fetal bovine serum (FBS) in a humidified incubator at 37° C. in 5% CO2.
as §5, with “The cells were” for “NCI-H460 NSCLC cell line was”
as §5, with “The cells were” for “NCI-H460 NSCLC cell line was”, “camptothecin” for “doxorubicin”
The cells were seeded at 2,000 cells/well in RPMI 1640 supplemented with 10% heat-inactivated FBS in 96 well tissue culture plates (CORNING #3340) and incubated at 37° C. in 5% CO2 overnight. On the next day Compound A, 5-FU or the combination of the two agents was added as a 2-fold dilution series in RPMI containing 1% DMSO.

[4] abbreviates: combination partner SOC with Compound A 62.5 nM.
[5] abbreviates: combination partner SOC with Compound A 250 nM.
Setting [6] is: combination partner SOC with Compound A 1000 nM.

For the compound `COc1cccc2c1C(=O)c1c(O)c3c(c(O)c1C2=O)C[C@@](O)(C(=O)CO)C[C@@H]3O[C@H]1C[C@H](N)[C@H](O)[C@H](C)O1` [Doxorubicin, (2S,4S)-4-(3-amino-2,3,6-trideoxy-α-L-lyxo-hexopyranosyloxy)-2,5,12-trihydroxy-2-hydroxyacetyl-7-methoxy-1,2,3,4-tetrahydrotetracene-6,11-dione], the “Caspase-3/7 fold induction at 24 h (fold of DMSO control)” value (“Caspase-3/7 fold induction at 24 h” below) with Caspase-3/7 [1] (setting [4]) is 1.6 fold of DMSO control; in the series on Caspase-3/7 [1] (setting [5]), 2.8 fold of DMSO control; in the series with Caspase-3/7 [1] (setting [6]) it was 4.1 fold of DMSO control; in the series with Caspase-3/7 [2] (setting [4]), 1.3 fold of DMSO control; in the series with Caspase-3/7 [2] (setting [5]), 1.7 fold of DMSO control; in the series on Caspase-3/7 [2] (setting [6]), 2.8 fold of DMSO control. Also, the “Combination index for above fractional inhibition, ED50” value is given as 0.27 in the series with NCI-H460 NSCLC cell line and 0.70 in series [3]. Further, the results for the “Combination index for above fractional inhibition, ED75” value (in the series on NCI-H460 NSCLC cell line; in series [3]) were 0.18 and 0.43, respectively. The “Combination index for above fractional inhibition, ED90” value in the series with NCI-H460 NSCLC cell line is 0.17; in series [3], 0.27.
On to `CC[C@@]1(O)C(=O)OCc2c1cc1n(c2=O)Cc2cc3ccccc3nc2-1` [Camptothecin, 4-ethyl-4-hydroxy-1H-pyrano[3′,4′:6,7]indolizino[1,2-b]quinoline-3,14-(4H,12H)-dione], for which the “Caspase-3/7 fold induction at 24 h” value in the series with Caspase-3/7 [1] (setting [4]) was 1.9 fold of DMSO control; in the series with Caspase-3/7 [1] (setting [5]) it was 2.6 fold of DMSO control; with Caspase-3/7 [1] (setting [6]), 4.0 fold of DMSO control; in the series with Caspase-3/7 [2] (setting [4]) it was 1.2 fold of DMSO control; with Caspase-3/7 [2] (setting [5]) it was 1.4 fold of DMSO control; with Caspase-3/7 [2] (setting [6]), 1.7 fold of DMSO control. Moreover, the figures for the “Combination index for above fractional inhibition, ED50” value (with NCI-H460 NSCLC cell line; in series [3]) were 0.39 and 0.56, respectively. Besides, the figures for the “Combination index for above fractional inhibition, ED75” value (in the series on NCI-H460 NSCLC cell line; in series [3]) were 0.39 and 0.40, respectively. In addition, the entries for the “Combination index for above fractional inhibition, ED90” value (in the series on NCI-H460 NSCLC cell line; in series [3]) were 0.63 and 0.29, respectively.
Turning to `O=c1[nH]cc(F)c(=O)[nH]1` [Compound 5-FU, 5-fluorouracil], the “Caspase-3/7 fold induction at 24 h” value is recorded as 1.5 fold of DMSO control with Caspase-3/7 [1] (setting [4]); 1.7 fold of DMSO control in the series with Caspase-3/7 [1] (setting [5]); 2.5 fold of DMSO control with Caspase-3/7 [1] (setting [6]); 1.2 fold of DMSO control in the series with Caspase-3/7 [2] (setting [4]); 1.3 fold of DMSO control with Caspase-3/7 [2] (setting [5]); 1.4 fold of DMSO control with Caspase-3/7 [2] (setting [6]). Besides, the “Combination index for above fractional inhibition, ED50” value in the series with NCI-H460 NSCLC cell line is listed as 0.35; in series [3], 0.68. Moreover, the “Combination index for above fractional inhibition, ED75” value in the series with NCI-H460 NSCLC cell line is on record as 0.30; in series [3], 0.54. Further, the “Combination index for above fractional inhibition, ED90” value is recorded as 0.37 in the series with NCI-H460 NSCLC cell line and 0.53 in series [3].
